The values that follow come from BindingDB's records for doi:10.1021/jm030528p (Encysive Pharmaceuticals, 2004).

As a reminder, the IC50 is the concentration that gives 50% inhibition. Read a high IC50 as weaker potency.

This experiment has as its target Endothelin-1 receptor (Homo sapiens) (UniProt P25101). Kind of experiment: Displacement of [125I]ET-1 from Endothelin A receptor. For orientation: Loss of bound radioactivity is the signal in a displacement assay; it reports binding, not function.

Chain of Endothelin-1 receptor (Homo sapiens) (P25101 whole entry, looked up): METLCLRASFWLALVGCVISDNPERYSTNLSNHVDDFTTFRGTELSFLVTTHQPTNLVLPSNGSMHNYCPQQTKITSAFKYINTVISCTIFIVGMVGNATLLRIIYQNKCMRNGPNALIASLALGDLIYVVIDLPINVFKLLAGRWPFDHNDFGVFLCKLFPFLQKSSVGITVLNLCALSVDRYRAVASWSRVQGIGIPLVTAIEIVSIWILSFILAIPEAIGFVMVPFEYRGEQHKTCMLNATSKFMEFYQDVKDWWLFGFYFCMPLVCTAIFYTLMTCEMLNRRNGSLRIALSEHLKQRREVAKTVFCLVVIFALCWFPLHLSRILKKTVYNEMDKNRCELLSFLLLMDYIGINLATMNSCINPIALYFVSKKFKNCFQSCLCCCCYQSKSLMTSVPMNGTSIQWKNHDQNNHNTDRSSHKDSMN

Turning to `Cc1cc(C)c(NC(=O)c2sccc2S(=O)(=O)Nc2onc(C)c2Cl)c(C(C)N=O)c1` (stereo unspecified) [3-(4-Chloro-3-methyl-isoxazol-5-ylsulfamoyl)-thiophene-2-carboxylic acid [2-(1-hydroxyimino-ethyl)-4,6-dimethyl-phenyl]-amide], the IC50 stood at 20 pM.
